Measurements as given in US7268147B2, “Compounds useful for the treatment of diseases” (Pfizer Inc, priority 2003, dated 2007).

What follows are molecules tested against T1, human β2 adrenergic receptor (Homo sapiens, UniProt P07550) (assay: Cell based cAMP β2 assay (cAMP-Flashplate, CHOhβ2 cells)). Settings: CHO cells recombinantly expressing the human β2 adrenergic receptor.
T1 construct: expressed in transfected cells; host or cells: CHO (Chinese Hamster Ovary) cells, CHOhβ2
Procedure: According to another alternative, the agonist potency for the β2 receptor of the compounds of the formula (1) may also be determined by the measure of the concentration of compound according to the present invention required to produce half maximal effect (EC50) for the β2 receptor.
10 mM/100% DMSO (dimethylsulfoxide) stock of compound is diluted to required top dose in 4% DMSO. This top dose is used to construct a 10-point semi-log dilution curve, all in 4% DMSO. […] Data was expressed as % Isoprenaline response.
Cells were seeded to give about 90% confluency for testing.
25 μl/well each dose of compound was transferred into a cAMP-Flashplate® (NEN, SMP004B), with 1% DMSO as basal controls and 100 nM Isoprenaline as max controls. This was diluted 1:2 by the addition of 25 μl/well PBS. […] Compounds were incubated with 50 μu/well cells for 1 hour. […] Dose-response data was expressed as % Isoprenaline activity and fitted using a four parameter sigmoid fit.

T1 sequence (P07550 whole entry): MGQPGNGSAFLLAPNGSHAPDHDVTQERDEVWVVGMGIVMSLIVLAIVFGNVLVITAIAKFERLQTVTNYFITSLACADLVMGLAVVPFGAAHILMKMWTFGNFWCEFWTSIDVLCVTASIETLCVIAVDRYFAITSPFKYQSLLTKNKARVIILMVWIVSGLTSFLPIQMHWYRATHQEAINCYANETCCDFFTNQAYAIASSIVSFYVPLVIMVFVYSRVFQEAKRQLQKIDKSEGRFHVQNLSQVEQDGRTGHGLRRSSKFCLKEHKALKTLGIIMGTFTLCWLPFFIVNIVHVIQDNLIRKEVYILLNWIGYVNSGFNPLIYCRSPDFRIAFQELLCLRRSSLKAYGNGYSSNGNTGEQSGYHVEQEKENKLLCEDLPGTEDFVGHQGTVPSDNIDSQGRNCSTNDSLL

| Compound | EC50 |
| --- | --- |
| C[C@H](Cc1cccc(CC(=O)NCc2ccccc2O)c1)NC[C@H](O)c1ccc(O)c(CO)c1 [Example 3, N-(2-Hydroxybenzyl)-2-(3-{(2R)-2-[(2R)-2-hydroxy-2-(4-hydroxy-3-hydroxymethyl-phenyl)-ethylamino]-propyl}-phenyl)-acetamide] | 0.007 nM |
| C[C@H](Cc1cccc(CC(=O)NC2Cc3ccccc3C2)c1)NC[C@H](O)c1ccc(O)c(CO)c1 [Example 4, 2-(3-{(2R)-2-[(2R)-2-Hydroxy-2-(4-hydroxy-3-hydroxymethyl-phenyl)-ethylamino]-propyl}-phenyl)-N-indan-2-yl-acetamide] | 0.012 nM |
| C[C@H](Cc1cccc(CC(=O)NCc2ccc(OC(F)(F)F)cc2)c1)NC[C@H](O)c1ccc(O)c(CO)c1 [Example 10, 2-(3-{(2R)-2-[(2R)-2-Hydroxy-2-(4-hydroxy-3-hydroxymethyl-phenyl)-ethylamino]-propyl}-phenyl)-N-(4-trifluoromethoxybenzyl)-acetamide] | 0.114 nM |
| C[C@H](Cc1cccc(CC(=O)NCc2ccc(C(N)=O)cc2)c1)NC[C@H](O)c1ccc(O)c(CO)c1 [Example 8, 4-{(2-(3-{(2R)-2-[(2R)-2-Hydroxy-2-(4-hydroxy-3-hydroxymethyl-phenyl)-ethylamino]-propyl}-phenyl)-acetylamino)-methyl}-benzamide] | 0.01 nM |
| C[C@H](Cc1cccc(CC(=O)NCc2ccccn2)c1)NC[C@H](O)c1ccc(O)c(CO)c1 [Example 7, 2-(3-{(2R)-2-[(2R)-2-Hydroxy-2-(4-hydroxy-3-hydroxymethyl-phenyl)-ethylamino]-propyl}-phenyl)-N-(pyridin-2-ylmethyl)-acetamide] | 0.028 nM |
| C[C@H](Cc1cccc(CC(=O)NCCc2ccccc2)c1)NC[C@H](O)c1ccc(O)c(CO)c1 [Example 15, 2-(3-{(2R)-2-[(2R)-2-Hydroxy-2-(4-hydroxy-3-hydroxymethyl-phenyl)-ethylamino]-propyl}-phenyl)-N-(2-phenylethyl)acetamide] | 0.056 nM |
| C[C@H](Cc1cccc(CC(=O)NCc2ccc(S(N)(=O)=O)cc2)c1)NC[C@H](O)c1ccc(O)c(CO)c1 [Example 6, N-[4-(Aminosulfonyl)benzyl]-2-(3-{(2R)-2-[(2R)-2-hydroxy-2-(4-hydroxy-3-hydroxymethyl-phenyl)-ethylamino]-propyl}-phenyl)-acetamide] | 0.007 nM |

Next, values leading:

| EC50 | Compound |
| --- | --- |
| 0.024 nM | C[C@H](Cc1cccc(CC(=O)NCc2ccc(Cl)c(Cl)c2)c1)NC[C@H](O)c1ccc(O)c(CO)c1 [Example 5, N-(3,4-Dichlorobenzyl)-2-(3-{(2R)-2-[(2R)-2-hydroxy-2-(4-hydroxy-3-hydroxymethyl-phenyl)-ethylamino]-propyl}-phenyl)-acetamide] |
| 0.009 nM | Cc1ccc(CNC(=O)Cc2cccc(C[C@@H](C)NC[C@H](O)c3ccc(O)c(CO)c3)c2)cc1C [Example 12, N-(3,4-Dimethylbenzyl)-2-(3-{(2R)-2-[(2R)-2-hydroxy-2-(4-hydroxy-3-hydroxymethyl-phenyl)-ethylamino]-propyl}-phenyl)-acetamide] |
| 0.017 nM | COc1cccc(OC)c1CNC(=O)Cc1cccc(C[C@@H](C)NC[C@H](O)c2ccc(O)c(CO)c2)c1 [Example 1, N-(2,6-Dimethoxybenzyl)-2-(3-{(2R)-2-[(2R)-2-hydroxy-2-(4-hydroxy-3-hydroxymethyl-phenyl)-ethylamino]-propyl}-phenyl)-acetamide] |
